Laboratory results: US8293773B2, “1, 2, 3-triazole derivatives as new cannabinoid-1 receptor antagonists” (National Tsing Hua University, priority 2008, dated 2012)

The compounds below were run against T1, human CB1 receptor (Homo sapiens, UniProt P21554) (assay: competitive radioligand binding assay, displacement of [3H]CP55,940, CB1). Details: Table 1; percent inhibition at 10 μM.
T1 construct: expressed in transfected cells; membrane-enriched fractions
Experimental: In addition, the affinity of test compounds of this invention toward CB1 and CB2 receptors was determined by competitive radioligand binding assays in vitro. This method differentiates the binding strength between compounds by their abilities in displacing a receptor-specific radioactive ligand. […] The readings of the radioactivity retained allow further analysis of receptor binding, and assist in predictions of the pharmacological activities of the test compounds.
In the assays, CB1 receptors are from human CB1 stably expressed cell lines, and CB2 receptors are from human CB2 stably expressed cell lines. For purification of membrane-enriched fractions, cells were scraped off from the culture dishes in ice-cold buffer A (50 mM Tris, 5 mM MgCl2, 2.5 mM EDTA, pH 7.4, 10% sucrose) with 1 mM PMSF. After sonication, the membrane-enriched fractions were centrifuged for 15 minutes at 2,000×g at 4° C. The supernatant was centrifuged again for 30 minutes at 43,000×g at 4° C. The final pellet was re-suspended in buffer A and stored at −80° C. The protein concentration of the purified membrane was determined by the Bradford method as described by the manual provided by Bio-Rad Laboratories, Inc., Hercules, Calif.
During the receptor binding experiments, 0.2˜8 μg of membrane fractions were incubated with 0.75 nM [^3H]CP55,940 and a test compound in the incubation buffer of 50 mM Tris-HCl, 5 mM MgCl2, 1 mM EDTA, 0.3% BSA, pH 7.4. The non-specific binding was determined by using 1 μM of CP55,940. The mixture was incubated for 1.5 hours at 30° C. in Multiscreen microplates (Millipore, Billerica, Mass.). At the completion of the incubation, the reaction was terminated by Manifold filtration and washed with ice-cold wash buffer (50 mM Tris, pH 7.4, 0.25% BSA) four times. The radioactivity bound to the filters was measured by Topcount (Perkin Elmer Inc.).

T1 sequence (P21554 whole entry): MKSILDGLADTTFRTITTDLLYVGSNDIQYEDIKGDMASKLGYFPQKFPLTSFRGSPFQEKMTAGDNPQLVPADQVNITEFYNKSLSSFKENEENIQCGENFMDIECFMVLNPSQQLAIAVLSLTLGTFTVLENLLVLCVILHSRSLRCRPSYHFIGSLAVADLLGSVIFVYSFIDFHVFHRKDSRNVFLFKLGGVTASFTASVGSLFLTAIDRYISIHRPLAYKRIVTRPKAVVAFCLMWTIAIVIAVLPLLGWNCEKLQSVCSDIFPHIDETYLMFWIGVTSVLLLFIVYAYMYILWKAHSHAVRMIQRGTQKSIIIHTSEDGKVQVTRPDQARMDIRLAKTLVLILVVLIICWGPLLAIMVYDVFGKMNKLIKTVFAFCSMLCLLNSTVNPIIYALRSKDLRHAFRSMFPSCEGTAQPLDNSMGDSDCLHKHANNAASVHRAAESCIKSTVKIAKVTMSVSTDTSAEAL

inhibition at 10 µM [%] | Structure (SMILES)
40.8 | CCCCOC(=O)Cn1nnc(-c2ccccc2)c1-c1ccccc1 [Compound 1]
22.6 | CCN(CC)C(=O)Cn1nnc(-c2ccccc2)c1-c1ccccc1 [Compound 2]
26.6 | O=C(Cn1nnc(-c2ccccc2)c1-c1ccccc1)N1CCCCC1 [Compound 3]
9.6 | CCCCOC(=O)Cn1cc(-c2ccccc2)nn1 [Compound 4]
18 | CC(C)N(C(=O)Cn1nnc(-c2ccccc2)c1-c1ccccc1)C(C)C [Compound 5]
50.5 | CCCCOC(=O)Cn1nnc(-c2ccc(Cl)c(Cl)c2)c1-c1ccc(Cl)c(Cl)c1 [Compound 6]
15.4 | C=CCNC(=O)Cn1nnc(-c2ccccc2)c1-c1ccccc1 [Compound 7]
12.3 | O=C(Cn1nnc(-c2ccccc2)c1-c1ccccc1)NN1CCCCC1 [Compound 8]
21.1 | CNC(=O)Cn1nnc(-c2ccccc2)c1-c1ccccc1 [Compound 9]
20.3 | O=C(Cn1nnc(-c2ccc(Cl)c(Cl)c2)c1-c1ccc(Cl)c(Cl)c1)N1CCCCC1 [Compound 10]
20.4 | O=C(Cn1nnc(-c2cccc(Cl)c2)c1-c1cccc(Cl)c1)N1CCCCC1 [Compound 11]
30.7 | O=C(Cn1nnc(-c2ccc(F)c(Cl)c2)c1-c1ccc(F)c(Cl)c1)N1CCCCC1 [Compound 12]
22 | CCCCOC(=O)Cn1nncc1-c1ccccc1 [Compound 13]
64.1 | CCCCOC(=O)Cn1nnc(-c2ccc(Cl)cc2)c1-c1ccc(Cl)cc1 [Compound 14]
35.4 | O=C(Cn1nnc(-c2ccccc2)c1-c1ccccc1)OCc1ccccc1 [Compound 15]
33 | O=C(Cn1nnc(-c2ccc(Cl)cc2)c1-c1ccc(Cl)cc1)N1CCCCC1 [Compound 16]
25.9 | O=C(Cn1nnc(-c2cc(Cl)cc(Cl)c2)c1-c1cc(Cl)cc(Cl)c1)N1CCCCC1 [Compound 17]
19.7 | O=C(Cn1nnc(-c2cccc(F)c2)c1-c1cccc(F)c1)N1CCCCC1 [Compound 18]
36.7 | CCCCOC(=O)Cn1nnc(-c2cccc(Cl)c2)c1-c1cccc(Cl)c1 [Compound 19]
51.2 | CCCCCOC(=O)Cn1nnc(-c2ccc(Cl)cc2)c1-c1ccc(Cl)cc1 [Compound 20]
15.7 | CCCCOC(=O)Cn1nnc(-c2ccc(F)c(Cl)c2)c1-c1ccc(F)c(Cl)c1 [Compound 21]

inhibition at 10 µM [%] | Structure (SMILES)
27.1 | CCCCOC(=O)Cn1nnc(-c2cccc(F)c2)c1-c1cccc(F)c1 [Compound 22]
29.9 | CCCCOC(=O)Cn1nnc(-c2cc(Cl)cc(Cl)c2)c1-c1cc(Cl)cc(Cl)c1 [Compound 23]
31.6 | CCCCOC(=O)CCn1nnc(-c2ccccc2)c1-c1ccccc1 [Compound 24]
53.6 | CCCCCCCOC(=O)Cn1nnc(-c2ccc(Cl)cc2)c1-c1ccc(Cl)cc1 [Compound 25]
51.2 | CCCCCCCCOC(=O)Cn1nnc(-c2ccc(Cl)cc2)c1-c1ccc(Cl)cc1 [Compound 26]
46 | O=C(NCCc1ccccc1)n1nc(-c2ccc(Cl)cc2Cl)c(-c2ccc(Cl)cc2Cl)n1 [Compound 27]
36.5 | CCCCCCOC(=O)Cn1nnc(-c2ccc(Cl)cc2)c1-c1ccc(Cl)cc1 [Compound 28]
31.9 | CCCCOC(=O)Cn1nnc(-c2ccccc2)c1-c1ccc(C(=O)OC)cc1 [Compound 29]
40 | CCCCOC(=O)Cn1nnc(-c2ccc(OC)cc2)c1-c1ccccc1 [Compound 30]
18.9 | CCCCOC(=O)Cn1nnc(-c2ccccc2)c1-c1ccc(C#N)cc1 [Compound 31]
28.3 | CCCOC(=O)Cn1nnc(-c2ccc(Cl)cc2)c1-c1ccc(Cl)cc1 [Compound 32]
24.6 | CCC(CC)OC(=O)Cn1nnc(-c2ccc(Cl)cc2)c1-c1ccc(Cl)cc1 [Compound 33]
45.9 | CCCCOC(=O)Cn1nnc(-c2ccc(OC)cc2)c1-c1ccc(OC)cc1 [Compound 34]
46 | CCCCOC(=O)Cn1nnc(-c2ccc(C(F)(F)F)cc2)c1-c1ccc(C(F)(F)F)cc1 [Compound 35]
35.2 | CCCCOC(=O)Cn1nnc(-c2ccccc2)c1-c1ccc(Cl)cc1 [Compound 36]
26.5 | CCCCOC(=O)Cn1nnc(-c2ccccc2)c1-c1ccc(C)cc1 [Compound 37]
23.8 | CCCCN(CCCC)C(=O)Cn1nnc(-c2ccccc2)c1-c1ccccc1 [Compound 38]
4.1 | CCCCCCCCN(CCCCCCCC)C(=O)Cn1nnc(-c2ccccc2)c1-c1ccccc1 [Compound 39]
16.3 | CCCCOC(=O)Cn1nnc(-c2ccccc2)c1-c1ccc(C(F)(F)F)cc1 [Compound 40]
14.7 | CCCCOC(=O)Cn1nnc(-c2ccccc2)c1-c1ccc([N+](=O)[O-])cc1 [Compound 41]
35.6 | CCCCOC(=O)Cn1nnc(-c2ccccc2)c1-c1ccsc1 [Compound 42]

inhibition at 10 µM [%] | Structure (SMILES)
34.4 | O=C(CCn1nnc(-c2ccccc2)c1-c1ccccc1)N1CCCCC1 [Compound 43]
14.1 | CC(C)(C)OC(=O)NNC(=O)Cn1nnc(-c2ccccc2)c1-c1ccccc1 [Compound 44]
9.8 | CCCCCCNC(=O)NNC(=O)Cn1nnc(-c2ccc(Cl)cc2)c1-c1ccc(Cl)cc1 [Compound 45]
50.8 | CCCCOC(=O)Cn1nnc(-c2ccc(Cl)cc2)c1-c1ccc(Cl)cc1Cl [Compound 46]
61.8 | O=C(Cn1nnc(-c2ccc(Cl)cc2Cl)c1-c1ccc(Cl)cc1)N1CCCCC1 [Compound 47]
36.1 | CCCCOC(=O)Cn1nnc(-c2ccccc2F)c1-c1ccccc1 [Compound 48]
30.3 | CCCCCCCCNC(=O)NNC(=O)Cn1nnc(-c2ccc(Cl)cc2)c1-c1ccc(Cl)cc1 [Compound 49]
27.5 | CCCCCCCNC(=O)NNC(=O)Cn1nnc(-c2ccc(Cl)cc2)c1-c1ccc(Cl)cc1 [Compound 50]
18.6 | CCCCCNC(=O)NNC(=O)Cn1nnc(-c2ccc(Cl)cc2)c1-c1ccc(Cl)cc1 [Compound 51]
11 | O=C(Cn1nnc(-c2ccccc2)c1-c1ccccc1F)N1CCCCC1 [Compound 52]
68.7 | CCCCOC(=O)Cn1nnc(-c2ccc(Br)cc2)c1-c1ccc(Br)cc1 [Compound 53]
71.7 | CCCCOC(=O)Cn1nnc(-c2ccc(Cl)cc2Cl)c1-c1ccc(Cl)cc1Cl [Compound 54]
45.7 | CCCCCCOC(=O)Cn1nnc(-c2ccc(Cl)cc2)c1-c1ccc(Cl)cc1Cl [Compound 55]
47.7 | CCCCCCOC(=O)Cn1nnc(-c2ccc(Cl)cc2Cl)c1-c1ccc(Cl)cc1 [Compound 56]
55.7 | CCCCCCOC(=O)Cn1nnc(-c2ccc(Cl)cc2Cl)c1-c1ccc(Cl)cc1Cl [Compound 57]
58.3 | CCCCCOC(=O)Cn1nnc(-c2ccc(Cl)cc2Cl)c1-c1ccc(Cl)cc1Cl [Compound 58]
55.7 | O=C(Cn1nnc(-c2ccc(Cl)cc2Cl)c1-c1ccc(Cl)cc1Cl)N1CCCCC1 [Compound 60]
46.1 | CCCCOC(=O)Cn1nnc(-c2ccc(C(=O)OC)cc2)c1-c1ccc(C(=O)OC)cc1 [Compound 61]
18.3 | CCCCOC(=O)Cn1nnc(-c2cccc(Br)c2)c1-c1cccc(Br)c1 [Compound 62]
9.9 | CCCCOC(=O)Cn1nnc(-c2cccc(C)c2)c1-c1cccc(C)c1 [Compound 63]
26 | O=C(Cn1nnc(-c2ccc(Cl)cc2Cl)c1-c1ccc(Cl)cc1Cl)N1CCOCC1 [Compound 64]

Structure (SMILES) | inhibition at 10 µM [%]
CCCCCCCOC(=O)Cn1nnc(-c2ccc(Cl)cc2Cl)c1-c1ccc(Cl)cc1Cl [Compound 59] | 30.1

Same assay, conditions: Table 2; percent inhibition at 10 μM

inhibition at 10 µM [%] | Structure (SMILES)
11.4 | O=C(c1ccccc1)n1nc(-c2ccccc2)c(-c2ccccc2)n1 [Compound 65]
32.1 | CC(C)(C)C(=O)n1nc(-c2ccccc2)c(-c2ccccc2)n1 [Compound 66]
13.1 | O=C(c1ccccc1Cl)n1nc(-c2ccccc2)c(-c2ccccc2)n1 [Compound 67]
24.2 | CC(C)(C)C(=O)n1nc(-c2ccc(Cl)cc2Cl)c(-c2ccc(Cl)cc2Cl)n1 [Compound 68]
9.9 | COc1ccc(NC(=O)n2nc(-c3ccc(Cl)cc3)c(-c3ccc(Cl)cc3)n2)cc1 [Compound 69]
16.2 | O=C(c1ccccc1)n1nc(-c2ccc(Cl)cc2)c(-c2ccc(Cl)cc2)n1 [Compound 70]
3.6 | Cc1cc(C)cc(NC(=O)n2nc(-c3ccc(Cl)cc3)c(-c3ccc(Cl)cc3)n2)c1 [Compound 71]
23.8 | O=C(NCc1ccccc1)n1nc(-c2ccc(Cl)cc2Cl)c(-c2ccc(Cl)cc2Cl)n1 [Compound 73]
